# Entries after “also recorded” stand apart in the source; their conditions may differ. Where two headings read alike, the source gives them in different places.
# Legend:
# [1] = target: T1, CYP3A4 (Homo sapiens, UniProt P08684); test: Addition of CYP inhibitors: metabolism of Compound I; format: in vivo; conditions: observed in Phase I clinical trials
# T1 construct: from tissue; host or cells: human subjects in vivo (endogenous enzyme)
# [2] = Phase 1 Part A: single ascending dose PK of Compound I (75 mg HME tablet) in healthy subjects; format: in vivo, human; conditions: for AUC(0-t) / AUC(0-inf) / Cmax / half-life / Vd/F / CL/F / t1/2: geometric mean (CV %); for Vd/F: read-out: Vz/F; for Tmax: median (minimum-maximum)
# Experimental: The 75 mg tablet formulation (described in Table 4) was made using the hot melt extrusion (HME) process described in this disclosure. This 75 mg tablet was used in human clinical studies (single-dose study in healthy volunteers) and (repeat-dose study in cancer patients). […] Following repeat dosing, the steady state exposure at the highest dose evaluated (900 mg BID), AUCt=68700 ng·hr/mL, approached the target efficacious exposure (Table 7).
# (§1) A total of 40 adult subjects with a mean age of 37 years were enrolled. Part A enrolled subjects into four single dose cohorts of Compound I ranging from 150 to 900 mg, and the PK data were evaluated to select the most appropriate dose level to use in Part B (900 mg). […] All doses of each drug were administered in the fasted state. This study used an amorphous solid dispersion formulation of Compound I produced with a hot-melt extrusion (HME) process.
# [3] = Phase 1 Part B: effect of CYP3A4 inhibitor cobicistat on PK of Compound I (HME) in healthy subjects; format: in vivo, human
# Experimental: as §1
# [4] = as above; format: in vivo, human; remark: listed apart in the source
# [5] = target: cytochrome P450 enzyme (Homo sapiens, UniProt P08684); test: CYP reaction phenotyping analysis; format: in vitro ADME
# [6] = human, in vivo, oral, single dose 150 mg, 75 mg HME tablet, fasted, N = 6
# [7] = human, in vivo, oral, single dose 300 mg, 75 mg HME tablet, fasted, N = 5
# [8] = human, in vivo, oral, single dose 450 mg, 75 mg HME tablet, fasted, N = 6
# [9] = human, in vivo, oral, single dose 900 mg, 75 mg HME tablet, fasted, N = 6
# [10] = single dose 150 mg, 75 mg HME tablet, fasted, N = 6
# [11] = single dose 300 mg, 75 mg HME tablet, fasted, N = 5
# [12] = single dose 450 mg, 75 mg HME tablet, fasted, N = 6
# [13] = single dose 900 mg, 75 mg HME tablet, fasted, N = 6
# [14] = 900 mg level, compared with Compound I administered alone
# [15] = human, in vivo, oral, Compound I 900 mg single dose alone, Part B, HME, fasted, N = 10, geometric mean (% CV)
# [16] = 300 mg level, compared with Compound I administered alone
# [17] = human, in vivo, oral, Compound I 300 mg single dose alone, Part B, HME, fasted, N = 8, geometric mean (% CV)
# T1 sequence (P08684 whole entry): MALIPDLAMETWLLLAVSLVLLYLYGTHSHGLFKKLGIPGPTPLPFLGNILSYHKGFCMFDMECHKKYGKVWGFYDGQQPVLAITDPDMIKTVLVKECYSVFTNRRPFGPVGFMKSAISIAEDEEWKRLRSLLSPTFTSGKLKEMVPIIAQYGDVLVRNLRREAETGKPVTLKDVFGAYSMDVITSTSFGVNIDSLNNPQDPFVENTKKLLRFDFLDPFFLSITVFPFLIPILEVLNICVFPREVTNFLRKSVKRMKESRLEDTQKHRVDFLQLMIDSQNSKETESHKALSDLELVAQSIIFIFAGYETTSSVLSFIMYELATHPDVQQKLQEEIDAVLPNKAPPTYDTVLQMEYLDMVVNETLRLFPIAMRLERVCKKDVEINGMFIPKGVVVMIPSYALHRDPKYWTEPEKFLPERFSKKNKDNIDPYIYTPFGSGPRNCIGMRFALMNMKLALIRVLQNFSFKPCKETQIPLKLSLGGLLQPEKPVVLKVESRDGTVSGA
# Sequence of cytochrome P450 enzyme (P08684 whole entry): as above
smiles,measurement,setting,value
Nn1nnc2ccccc21 [ABT],effect of added CYP inhibitor on metabolism of Compound I,[1],blocked the metabolism of Compound I
"O=C(c1c(F)ccc(NS(=O)(=O)N2CC[C@@H](F)C2)c1F)c1c[nH]c2ncc(-c3cnc(C4CC4)nc3)cc12 [Compound I, (R)-N-(3-(5-(2-cyclopropylpyrimidin-5-yl)-1H-pyrrolo[2,3-b]pyridine-3-carbonyl)-2,4-difluorophenyl)-3-fluoropyrrolidine-1-sulfonamide]",AUC(0-t),"[2]; human, in vivo, oral, 150 mg, single dose 150 mg, 75 mg HME tablet, fasted, N = 6, read-out: AUC0-12",7240 ng·h/mL
same,AUC(0-t),"[2]; human, in vivo, oral, 150 mg, single dose 150 mg, 75 mg HME tablet, fasted, N = 6, read-out: AUC0-24",7720 ng·h/mL
same,AUC(0-t),"[2]; human, in vivo, oral, 150 mg, single dose 150 mg, 75 mg HME tablet, fasted, N = 6, read-out: AUC0-t",7870 ng·h/mL
same,AUC(0-t),"[2]; human, in vivo, oral, 300 mg, single dose 300 mg, 75 mg HME tablet, fasted, N = 5, read-out: AUC0-12",12100 ng·h/mL
same,AUC(0-t),"[2]; human, in vivo, oral, 300 mg, single dose 300 mg, 75 mg HME tablet, fasted, N = 5, read-out: AUC0-24",12600 ng·h/mL
same,AUC(0-t),"[2]; human, in vivo, oral, 300 mg, single dose 300 mg, 75 mg HME tablet, fasted, N = 5, read-out: AUC0-t",12900 ng·h/mL
same,AUC(0-t),"[2]; human, in vivo, oral, 450 mg, single dose 450 mg, 75 mg HME tablet, fasted, N = 6, read-out: AUC0-12",21000 ng·h/mL
same,AUC(0-t),"[2]; human, in vivo, oral, 450 mg, single dose 450 mg, 75 mg HME tablet, fasted, N = 6, read-out: AUC0-24",21800 ng·h/mL
same,AUC(0-t),"[2]; human, in vivo, oral, 450 mg, single dose 450 mg, 75 mg HME tablet, fasted, N = 6, read-out: AUC0-t",22100 ng·h/mL
same,AUC(0-t),"[2]; human, in vivo, oral, 900 mg, single dose 900 mg, 75 mg HME tablet, fasted, N = 6, read-out: AUC0-12",37500 ng·h/mL
same,AUC(0-t),"[2]; human, in vivo, oral, 900 mg, single dose 900 mg, 75 mg HME tablet, fasted, N = 6, read-out: AUC0-24",39200 ng·h/mL
same,AUC(0-t),"[2]; human, in vivo, oral, 900 mg, single dose 900 mg, 75 mg HME tablet, fasted, N = 6, read-out: AUC0-t",40000 ng·h/mL
same,AUC(0-inf),[2]; [6],7610 ng·h/mL
same,Cmax,[2]; [6],2070 ng/mL
same,half-life,[2]; [6],8.18 h
same,Vd/F,[2]; [6],233 L
same,Tmax,"[2]; human, in vivo, oral, single dose 150 mg, 75 mg HME tablet, fasted, N = 6, read-out: tmax",2 h
same,AUC(0-inf),[2]; [7],13200 ng·h/mL
same,Cmax,[2]; [7],4180 ng/mL
same,half-life,[2]; [7],9.56 h
same,Vd/F,[2]; [7],313 L
same,Tmax,"[2]; human, in vivo, oral, single dose 300 mg, 75 mg HME tablet, fasted, N = 5, read-out: tmax",2 h
same,AUC(0-inf),[2]; [8],22400 ng·h/mL
same,Cmax,[2]; [8],7500 ng/mL
same,half-life,[2]; [8],8.36 h
same,Vd/F,[2]; [8],243 L
same,Tmax,"[2]; human, in vivo, oral, single dose 450 mg, 75 mg HME tablet, fasted, N = 6, read-out: tmax",1 h
same,AUC(0-inf),[2]; [9],40400 ng·h/mL
same,Cmax,[2]; [9],13300 ng/mL
same,half-life,[2]; [9],9.12 h
same,Vd/F,[2]; [9],293 L
same,Tmax,"[2]; human, in vivo, oral, single dose 900 mg, 75 mg HME tablet, fasted, N = 6, read-out: tmax",1 h
same,PK linearity,[2]; single ascending doses under fasted conditions,linear PK
same,CL/F,[2]; [10],19.7 (46.9) L/hr
same,t1/2,[2]; [10],8.18 h
same,CL/F,[2]; [11],22.7 (56.5) L/hr
same,t1/2,[2]; [11],9.56 h
same,Tmax,[2]; [11],2.0 (1.0-2.0) hr
same,CL/F,[2]; [12],20.1 (62.5) L/hr
same,t1/2,[2]; [12],8.36 h
same,Tmax,[2]; [12],1.0 (1.0-2.0) hr
same,CL/F,[2]; [13],22.3 (55.8) L/hr
same,t1/2,[2]; [13],9.12 h
same,Tmax,[2]; [13],1.0 (1.0-2.0) hr
same,exposure (Cmax and AUC) versus dose,"[2]; single dose 150 to 900 mg, 75 mg HME tablet, fasted",dose-proportional increase in exposure; also recorded: Exposure increased dose proportionally
same,increase of mean AUC0-t and AUC0-∞ with cobicistat co-administration,[3]; [14],3.8 fold
same,increase of mean Cmax with cobicistat co-administration,[3]; [14],2.7 fold
same,AUC(0-t),"[3]; human, in vivo, oral, 900 mg, Compound I 900 mg single dose alone, Part B, HME, fasted, N = 10, geometric mean (% CV)",34800 ng·h/mL
same,AUC(0-inf),[3]; [15],35200 ng·h/mL
same,Cmax,[3]; [15],11400 ng/mL
same,half-life,[3]; [15],8.94 h
same,Tmax,"[3]; human, in vivo, oral, Compound I 900 mg single dose alone, Part B, HME, fasted, N = 10, median (minimum-maximum)",2 h
same,increase of mean AUC0-t and AUC0-∞ with cobicistat co-administration,[4]; [16],2.6 fold
same,increase of mean Cmax with cobicistat co-administration,[4]; [16],1.8 fold
same,AUC(0-t),"[4]; human, in vivo, oral, 300 mg, Compound I 300 mg single dose alone, Part B, HME, fasted, N = 8, geometric mean (% CV), read-out: AUC0-24",15800 ng·h/mL
same,AUC(0-t),"[4]; human, in vivo, oral, 300 mg, Compound I 300 mg single dose alone, Part B, HME, fasted, N = 8, geometric mean (% CV), read-out: AUC0-t",16200 ng·h/mL
same,AUC(0-t),"[4]; human, in vivo, oral, 900 mg, Compound I 900 mg single dose alone, Part B, HME, fasted, N = 10, geometric mean (% CV), read-out: AUC0-24",34100 ng·h/mL
same,AUC(0-inf),[4]; [17],16400 ng·h/mL
same,Cmax,[4]; [17],4840 ng/mL
same,half-life,[4]; [17],9.96 h
same,Tmax,"[4]; human, in vivo, oral, Compound I 300 mg single dose alone, Part B, HME, fasted, N = 8, median (minimum-maximum)",2 h
same,main cytochrome P450 enzyme responsible for metabolism,[5],CYP3A4

# From patent US11103505B2, “Formulations of a compound modulating kinases” (Plexxikon Inc., priority 2017, dated 2021)
